Values joined by “and” are separate entries in the source; they are usually repeats but may differ in a detail not shown here. Identical values can stand only once.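 1) Cells in 96-well plates. 2) Compound, 48 h, 5 concentrations. 3) Linear interpolation between surrounding doses. 4) Unreached endpoint = highest concentration. GI50: concentration for 50% inhibition of growth. Definition used: TGI = concentration required for complete inhibition of growth.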

Experimental findings from PubChem BioAssay (NCI) are described below.

One assay has as its system MOLT-4 leukemia. Description: NCI tumour cell line growth inhibition, 48 h.
In turn, `COc1ccccc1N/C(=C\C(=O)C(=O)NC12CC3CC(CC(C3)C1)C2)c1ccccc1` returned a TGI above 10 µM.
On the same count and under the same terms, the same measure for `Cc1c(F)c(N)c2c(=O)cc(-c3ccc(NC(=O)CN(C)C)c(F)c3)oc2c1F`: above 71.8 µM; for `COc1cccc2c(N)c3cccc(C(=O)NCCN(C)C)c3nc12`: 0.264 µM.
The same measure, in the same setting: for `O=C(CCCCCCCCC(=O)NN1C(=O)/C(=C\c2ccc(O)c(O)c2)SC1c1ccc(Cl)cc1)NN1C(=O)/C(=C\c2ccc(O)c(O)c2)SC1c1ccc(Cl)cc1` (stereo unspecified) the value was 15.3 µM.
On the same count and under the same terms, the same measure for `CC(C)Sc1nc(C#N)cc2c1CCCC2`: 61.6 µM.
`CN1C(=O)N(c2ccccc2)C2(CCN(CC3COc4ccccc4O3)CC2)C1=O` (stereo unspecified) gave a TGI above 100 µM.
Consider `O=C1/C(=C/c2ccccc2)N=C(c2ccccc2)N1n1c(-c2ccccc2)nc2ccccc2c1=O`, for which the TGI was above 100 µM.
Same read-out and setting: for `O=c1nc(N2CCN(c3ccccc3)CC2)ccn1C1OC(CO)C(O)C1O` (stereo unspecified) the value was above 100 µM; for `OCCCCCNc1c2ccccc2nc2ccccc12`, above 63.3 µM.
Still for that read-out and setting: for `CCOP(=O)(OCC)/C(C#N)=C/c1cnc(-c2ccccc2)[nH]1` the value was above 100 µM.
The compound `CC(=O)OCC1OC(OC(C)(C)CC/C=C(\C)[C@@H]2C/C=C(\C)CC/C=C(\C)CC2)C(O)C(O)C1OC(C)=O` (stereo partly specified) yielded a TGI of 49.1 µM.
The same measure, in the same setting: the same measure for `O=C(O)c1c2c(cc3c1CC1(Cc4ccccc4C1)C3)CCC2`: above 100 µM.
Still for that read-out and setting: for `Cc1nc(-c2ccc([N+](=O)[O-])cc2)cn2c1nc1ccccc12` the value was above 100 µM.
Same read-out and setting: the same measure for `CN(C)CCCOC(=O)C(c1ccccc1)C1(O)CCSCC1` (stereo unspecified): above 100 µM.
In turn, `COCOC1/C=C/CCCCC2=C(C)C=C(C1)O2` (stereo unspecified) had a TGI above 100 µM.
On the same count and under the same terms, the same measure for `O=C(O)c1cc2c(cc1CC(Cc1ccc3c(c1)CCC3)C(=O)O)CCC2` (stereo unspecified): above 100 µM.
Same read-out and setting: for `C[C@@]12[C@H]3CC[C@@H]1[C@H](O)C(=O)N2CC3` the value was above 100 µM; for `CC(C)=CCOC(=O)C(C)=[N+]=[N-]`, above 100 µM.
Still for that read-out and setting: for `Cc1ccc([C@@H]2[C@@H](C(=O)c3ccccn3)[C@H](c3ccc(C)cc3)C[C@](O)(c3ccccn3)[C@H]2C(=O)c2ccccn2)cc1` the value was above 100 µM; for `O=C(Nc1ccc(Br)cc1)c1c(-c2ccccc2)c2ccc(O)cc2oc1=O`, above 10 µM; for `O=C1C(Cl)=C(N2CCN(C3=C(Cl)C(=O)c4ccccc4C3=O)CC2)C(=O)c2ccccc21`, 1.69 µM.
`CC(C)(N=NC(C)(C)C(=O)NCCO)C(=O)NCCO` displayed a TGI above 100 µM.
Turning to `CCOc1cc(NC(C)=O)ccc1C(=O)NNC(=O)c1ccccc1OC(C)=O`, the TGI was above 40.5 µM.
As to `c1ccc2c(c1)OC(N1CCCC1)c1cnc(N3CCCC3)nc1-2` (stereo unspecified), the TGI amounted to 70.5 µM.
On the same count and under the same terms, for `CC(C)c1ccc2[nH]c(O)c(-c3[nH]c4ccccc4c3N=O)c2c1` the value was 15.1 µM; for `CCCCCCCCCCCCCCCCCCNc1ccn(C2OC(COP(=O)(O)OCC3OC(n4ccc(NC(=O)CCCCCCCCCCCCCCCCC)nc4=O)C(OC(C)=O)C3OC(C)=O)C(OC(C)=O)C2OC(C)=O)c(=O)n1` (stereo unspecified), above 100 µM.

A further assay has as its system 786-0 renal. The assay can be described thus: NCI tumour cell line growth inhibition, 48 h.
In turn, `COc1ccccc1N/C(=C\C(=O)C(=O)NC12CC3CC(CC(C3)C1)C2)c1ccccc1` gave a TGI above 10 µM.
In turn, `Cc1c(F)c(N)c2c(=O)cc(-c3ccc(NC(=O)CN(C)C)c(F)c3)oc2c1F` showed a TGI above 100 µM.
The same measure, in the same setting: for `COc1cccc2c(N)c3cccc(C(=O)NCCN(C)C)c3nc12` the value was 1.82 µM; for `O=C(CCCCCCCCC(=O)NN1C(=O)/C(=C\c2ccc(O)c(O)c2)SC1c1ccc(Cl)cc1)NN1C(=O)/C(=C\c2ccc(O)c(O)c2)SC1c1ccc(Cl)cc1` (stereo unspecified), 34.4 µM.
On the same count and under the same terms, the same measure for `CC(C)Sc1nc(C#N)cc2c1CCCC2`: above 100 µM; for `CN1C(=O)N(c2ccccc2)C2(CCN(CC3COc4ccccc4O3)CC2)C1=O` (stereo unspecified): above 100 µM.
For the compound `O=C1/C(=C/c2ccccc2)N=C(c2ccccc2)N1n1c(-c2ccccc2)nc2ccccc2c1=O`, the TGI was above 100 µM.
Compound `O=c1nc(N2CCN(c3ccccc3)CC2)ccn1C1OC(CO)C(O)C1O` (stereo unspecified) showed a TGI above 100 µM.
For the compound `OCCCCCNc1c2ccccc2nc2ccccc12`, the TGI amounted to 12.9 µM.
The compound `CCOP(=O)(OCC)/C(C#N)=C/c1cnc(-c2ccccc2)[nH]1` registered a TGI above 100 µM.
Turning to `CC(=O)OCC1OC(OC(C)(C)CC/C=C(\C)[C@@H]2C/C=C(\C)CC/C=C(\C)CC2)C(O)C(O)C1OC(C)=O` (stereo partly specified), the TGI was 96.8 µM and 58.8 µM.
Still for that read-out and setting: the same measure for `O=C(O)c1c2c(cc3c1CC1(Cc4ccccc4C1)C3)CCC2`: above 100 µM; for `Cc1nc(-c2ccc([N+](=O)[O-])cc2)cn2c1nc1ccccc12`: above 100 µM; for `CN(C)CCCOC(=O)C(c1ccccc1)C1(O)CCSCC1` (stereo unspecified): above 100 µM.
The same measure, in the same setting: for `COCOC1/C=C/CCCCC2=C(C)C=C(C1)O2` (stereo unspecified) the value was above 100 µM; for `O=C(O)c1cc2c(cc1CC(Cc1ccc3c(c1)CCC3)C(=O)O)CCC2` (stereo unspecified), above 100 µM.
The same measure, in the same setting: the same measure for `C[C@@]12[C@H]3CC[C@@H]1[C@H](O)C(=O)N2CC3`: above 100 µM; for `CC(C)=CCOC(=O)C(C)=[N+]=[N-]`: above 100 µM.
`Cc1ccc([C@@H]2[C@@H](C(=O)c3ccccn3)[C@H](c3ccc(C)cc3)C[C@](O)(c3ccccn3)[C@H]2C(=O)c2ccccn2)cc1` gave a TGI of 9.15 µM.
On the same count and under the same terms, the same measure for `O=C(Nc1ccc(Br)cc1)c1c(-c2ccccc2)c2ccc(O)cc2oc1=O`: above 10 µM; for `O=C1C(Cl)=C(N2CCN(C3=C(Cl)C(=O)c4ccccc4C3=O)CC2)C(=O)c2ccccc21`: 3.26 µM.
For `CC(C)(N=NC(C)(C)C(=O)NCCO)C(=O)NCCO`, the TGI was above 100 µM.
For the compound `CCOc1cc(NC(C)=O)ccc1C(=O)NNC(=O)c1ccccc1OC(C)=O`, the TGI was above 90.3 µM.
`c1ccc2c(c1)OC(N1CCCC1)c1cnc(N3CCCC3)nc1-2` (stereo unspecified) returned a TGI above 100 µM.
Same read-out and setting: the same measure for `CC(C)c1ccc2[nH]c(O)c(-c3[nH]c4ccccc4c3N=O)c2c1`: 16.8 µM; for `CCCCCCCCCCCCCCCCCCNc1ccn(C2OC(COP(=O)(O)OCC3OC(n4ccc(NC(=O)CCCCCCCCCCCCCCCCC)nc4=O)C(OC(C)=O)C3OC(C)=O)C(OC(C)=O)C2OC(C)=O)c(=O)n1` (stereo unspecified): above 100 µM.

A further assay relates to A498 renal. The assay can be described thus: NCI tumour cell line growth inhibition, 48 h.
For `COc1ccccc1N/C(=C\C(=O)C(=O)NC12CC3CC(CC(C3)C1)C2)c1ccccc1`, the TGI is above 10 µM.
On the same count and under the same terms, for `Cc1c(F)c(N)c2c(=O)cc(-c3ccc(NC(=O)CN(C)C)c(F)c3)oc2c1F` the value was 5.77 µM; for `COc1cccc2c(N)c3cccc(C(=O)NCCN(C)C)c3nc12`, 1.15 µM; for `O=C(CCCCCCCCC(=O)NN1C(=O)/C(=C\c2ccc(O)c(O)c2)SC1c1ccc(Cl)cc1)NN1C(=O)/C(=C\c2ccc(O)c(O)c2)SC1c1ccc(Cl)cc1` (stereo unspecified), 69 µM.
Compound `CC(C)Sc1nc(C#N)cc2c1CCCC2` had a TGI above 100 µM.
Still for that read-out and setting: the same measure for `CN1C(=O)N(c2ccccc2)C2(CCN(CC3COc4ccccc4O3)CC2)C1=O` (stereo unspecified): above 100 µM.
Consider `O=C1/C(=C/c2ccccc2)N=C(c2ccccc2)N1n1c(-c2ccccc2)nc2ccccc2c1=O`, for which the TGI was above 100 µM.
For the compound `O=c1nc(N2CCN(c3ccccc3)CC2)ccn1C1OC(CO)C(O)C1O` (stereo unspecified), the TGI is above 100 µM.
Still for that read-out and setting: for `OCCCCCNc1c2ccccc2nc2ccccc12` the value was 12.7 µM; for `CCOP(=O)(OCC)/C(C#N)=C/c1cnc(-c2ccccc2)[nH]1`, above 100 µM.
Regarding `CC(=O)OCC1OC(OC(C)(C)CC/C=C(\C)[C@@H]2C/C=C(\C)CC/C=C(\C)CC2)C(O)C(O)C1OC(C)=O` (stereo partly specified), the GI50 is > 100 µM and 24.4 µM; the TGI was > 100 µM and 44.8 µM.
With `O=C(O)c1c2c(cc3c1CC1(Cc4ccccc4C1)C3)CCC2`, the TGI is above 100 µM.
On the same count and under the same terms, for `Cc1nc(-c2ccc([N+](=O)[O-])cc2)cn2c1nc1ccccc12` the value was above 100 µM.
